According to patent US5789447A, “Nitric oxide releasing compounds as protective agents in ischemia reperfusion injury” (priority 1995, dated 1998):

Tests used:
[1] = test system: Chinese hamster V79 lung fibroblasts; test: V79 clonogenic survival, hypoxanthine/xanthine oxidase (HX/XO) cytotoxicity; conditions: decomposition products of DEA/NO, 1 mM
Procedure: Chinese hamster V79 lung fibroblasts were cultured in F12 medium supplemented with 10% fetal calf serum and antibiotics. Cell survival was assessed by clonogenic assay with 85-95% plating efficiency. Stock cultures of exponentially growing cells were trypsinized, rinsed, and plated (7×10^5 cells/dish) into a number of 100 cm^2 petri dishes and incubated 16 hr at 37° C. prior to experimental protocols.
It has been shown that exposure of V79 cells to hydrogen peroxide results in dose-dependent cytotoxicity (Mitchell et al., supra).
HX and XO were purchased from Boehringer Co. (Indianapolis, Ind.). Nitrite, diethylamine, sulfinamide, diethylenetriaminepentaacetic acid (DETAPAC) and N-(1-naphthyl)ethylenediaminedihydrogenchloride (NEDD) were purchased from Aldrich (Milwaukee, Wis.). Cytosine-β-D-arabinofuranoside and ferricytochrome c were purchased from Sigma (St. Louis, Mo.). DEA/NO and SPER/NO were synthesized as previously described (Maragos et al., (1991), supra).
Exponentially growing cultures of Chinese hamster V79 fibroblasts were exposed to either HX/XO (final concentration of HX was 0.5 mM; 0.08 units/ml XO were used) for various amounts of time (FIG. 1A) or to various concentrations of hydrogen peroxide for one hour (FIG. 1B). […] Additionally, 1 mM DEA/NO was added to medium in the absence of cells, incubated at 37° C. for 1 hr or 16 hrs, and then added just prior to the addition of hydrogen peroxide to evaluate the effects of DEA/NO which had released NO. After treatment, cell monolayers were rinsed twice with phosphate-buffered saline (PBS), trypsinized, counted and plated in triplicate for macroscopic colony formation. Each dose determination was plated in triplicate and experiments were repeated a minimum of two times. Plates were incubated for 7 days, after which colonies were fixed with methanol/acetic acid (3:1), stained with crystal violet, and counted. Colonies containing more than 50 cells were scored.

[2] = test system: Chinese hamster V79 lung fibroblasts; test: V79 clonogenic survival, hydrogen peroxide cytotoxicity; type: cell-based; conditions: 1 mM; for effect on hydrogen peroxide cytotoxicity: FIG. 2B; for protection from hydrogen peroxide cytotoxicity: decomposition products of DEA/NO, FIG. 1B
Excerpt: Colonies containing more than 50 cells were scored.

XO [3] = biological target: T1, XO (Bos taurus, UniProt P80457); test: XO activity by superoxide-induced reduction of ferricytochrome c; type: biochemical; conditions: 1 mM, preincubated with HX/XO
T1 sequence (P80457 whole entry): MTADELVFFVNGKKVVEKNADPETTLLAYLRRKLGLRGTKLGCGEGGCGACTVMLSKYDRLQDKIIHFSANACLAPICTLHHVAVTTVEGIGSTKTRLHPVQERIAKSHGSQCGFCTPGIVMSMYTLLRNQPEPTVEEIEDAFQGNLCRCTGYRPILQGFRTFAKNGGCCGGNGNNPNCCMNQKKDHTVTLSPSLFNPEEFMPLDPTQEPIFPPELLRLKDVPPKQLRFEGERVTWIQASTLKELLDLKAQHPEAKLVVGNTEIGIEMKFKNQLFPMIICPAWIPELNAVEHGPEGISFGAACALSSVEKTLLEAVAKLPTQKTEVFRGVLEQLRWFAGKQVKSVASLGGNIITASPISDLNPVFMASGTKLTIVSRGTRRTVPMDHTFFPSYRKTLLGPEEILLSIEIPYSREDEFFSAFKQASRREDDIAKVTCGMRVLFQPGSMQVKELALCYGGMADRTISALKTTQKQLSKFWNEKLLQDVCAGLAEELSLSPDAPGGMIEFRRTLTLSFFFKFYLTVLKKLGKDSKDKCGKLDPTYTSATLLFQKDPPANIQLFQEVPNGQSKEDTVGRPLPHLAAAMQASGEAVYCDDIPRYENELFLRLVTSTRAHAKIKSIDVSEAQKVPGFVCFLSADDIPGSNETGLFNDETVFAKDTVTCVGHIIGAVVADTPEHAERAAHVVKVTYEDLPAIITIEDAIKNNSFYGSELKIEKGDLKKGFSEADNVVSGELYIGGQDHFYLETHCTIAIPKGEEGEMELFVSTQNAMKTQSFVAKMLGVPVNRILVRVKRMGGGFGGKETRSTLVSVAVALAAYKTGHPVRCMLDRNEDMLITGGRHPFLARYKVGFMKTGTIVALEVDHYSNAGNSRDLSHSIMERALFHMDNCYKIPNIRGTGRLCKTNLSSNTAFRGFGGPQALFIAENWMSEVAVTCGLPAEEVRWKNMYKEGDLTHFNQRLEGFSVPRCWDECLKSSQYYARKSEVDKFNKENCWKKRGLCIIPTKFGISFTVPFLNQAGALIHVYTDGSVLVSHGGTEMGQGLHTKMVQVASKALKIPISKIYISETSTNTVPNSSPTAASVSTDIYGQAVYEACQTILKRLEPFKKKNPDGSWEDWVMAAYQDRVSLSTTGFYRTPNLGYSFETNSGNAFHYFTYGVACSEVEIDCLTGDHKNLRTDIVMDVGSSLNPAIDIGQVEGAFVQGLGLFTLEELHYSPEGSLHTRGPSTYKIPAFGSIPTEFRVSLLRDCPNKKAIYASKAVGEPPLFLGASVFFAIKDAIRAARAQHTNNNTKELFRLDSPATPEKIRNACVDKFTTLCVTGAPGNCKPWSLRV
Procedure: (§1) The activity of XO was monitored in the absence and presence of 1 mM DEA/NO by two different assays. Superoxide-induced reduction of ferricytochrome c to ferrocytochrome c was monitored spectrophotometrically at 550 nm (Fridovich, Handbook of Method for Oxygen Radical Research, pages 213-215 (1985)). The reaction was carried out in a 1 ml volume in aerated phosphate buffer (pH 7.8, 50 mM) containing 50 μM DETAPAC. HX was maintained at 2.5 mM and ferricytochrome c at 20 μM. The reactions were initiated with the addition of XO (final concentration of 0.2 units/ml). The activity of XO in the absence and presence of 1 mM DEA/NO was directly monitored by measuring the production of uric acid spectrophotometrically at 305 nm for 10 min under the same conditions but in the absence of ferricytochrome c. All enzymatic assays and chemical reactions were done at 37° C.

XO [4] = biological target: T1, XO; test: XO activity by uric acid production at 305 nm; type: biochemical; conditions: 1 mM, preincubated with HX/XO
Procedure: as §1

rat mesenteric venules = test: Venular diameter, RBC velocity and wall shear rate after ischemia reperfusion; type: in vivo; conditions: 100 μM in superfusate; for RBC velocity / Venular diameter / Wall Shear Rate: 30 min after reperfusion
Procedure: (§2) Male Sprague-Dawley rats weighing 200-250 g apiece were maintained on a purified laboratory diet and fasted for 24 hours prior to each experiment. The animals were initially anesthetized with pentobarbital (65 mg/kg body weight) and then a tracheotomy was performed to facilitate breathing during subsequent experimentation. The right carotid artery was cannulated and system arterial pressure was measured with a Statham P23A pressure transducer (Oxnard, Calif.) connected to the carotid artery cannula. Systemic blood pressure and heart rate were continuously recorder with a Grass physiologic recorded (Grass Instruments).
(§3) Rats were placed in a supine position on an adjustable plexiglass microscope stage and the mesentery was prepared for microscopic observation as described previously (Asako et al., Gastroenterology, 103, 146-152 (1992); Kurose et al., Circ. Res., in press (1993)). Briefly, the mesentery was draped over a non-fluorescent coverslip that allowed for observation of a 2 cm^2 segment of tissue. The exposed bowel wall was covered with Saran Wrap (Dow Chemical Co.) and the mesentery was superfused with bicarbonate-buffered saline (pH 7.4, 37° C.) that was bubbled with a mixture of 5% CO2 and […].
(§4) An inverted microscope (TMD-25, Diaphoto, Nikon, Tokyo, Japan) with a 40x objective lens (Fluor, Nikon) was used to observe the mesenteric microcirculation. The mesentery was transilluminated with a 12 V-100 W direct current-stabilized light source. A video camera (VK-C150, Hitachi, Ibaragi, Japan) mounted on the microscope projected the image onto a color monitor (PVM-2030, Sony, Tokyo, Japan) and the images were recorded using a videocassette record (NV8950, Panasonic, Tokyo, Japan). A video time-date generator (WJ810, Panasonic) projected the time, date and stopwatch function onto the monitor.
(§5) Single unbranched venules with diameters ranging between 25 and 35 μm and length greater than 150 μm were selected for study. Venular diameter (DV) was measured either on- or off-line using a video caliper (Microcirculation Research Institute, Texas A&M University, College Station, Tex.). Red blood cell centerline velocity (VRBC) was measured in venules using an optical Dopper velocimeter (Microcirculation Research Institute, Texas A&M University, College Station, Tex.). The velocimeter was calibrated against a rotating glass disk coated with red blood cells. Venular blood flow was calculated from the product of mean red blood cell velocity (Vmean =centerline velocity/1.6; Davis, Microvasc. Res., 34, 223-230 (1987)) and microvascular cross-sectional area, assuming cylindrical geometry. Wall shear rate (γ) was calculated based on the Newtonian definition γ=8(Vmean /D).
After all parameters measured on-line were in a steady state, images from the mesenteric preparation were recorded on videotape for 10 min. […] The mesentery was made ischemic for zero (sham ischemia) or 20 min. After the ischemic period, the ligation was gently removed. In some experiments, either sodium nitroprusside (SNP, 100 μM, Sigma Chemical), spermine-NO (SpNO, 100 μM), SIN-1 (100 μM), spermine (SP, 100 μM, Sigma Chemical), or NG-nitro-L-arginine methyl ester (L-NAME, 100 μM, Sigma Chemical) was added to the superfusate and the same protocol was employed. Spermine-NO and SIN-1, which are NO donors, were obtained from the National Institutes of Health, Bethesda, Md. […]

leukocytes = test: Leukocyte adherence and emigration after ischemia reperfusion (mesenteric venules); type: in vivo, rat; conditions: 20 min ischemia, 100 μM; for change in leukocyte adherence: FIG. 4A; for effect on emigrated leukocytes: 30 min reperfusion, in words
Procedure: as §2, §3, §4, §5
The number of adherent leukocytes was determined off-line during playback of videotape images. A leukocyte was considered to be adherent to venular endothelium if it remained stationary for a period equal to or greater than 30 seconds (Granger et al., Am. J. Physiol., 257, G683-G688 (1989)). Adherent cells were expressed as the number per 100 μm length of venule. The number of emigrated leukocytes was also determined off-line during playback of videotape images. Any interstitial leukocytes present in the mesentery at the onset of the experiment were subtracted from the total number of leukocytes that accumulated during the course of the experiment. Leukocyte emigration was expressed as the number per field of view surrounding the venule. Platelet-leukocyte aggregates, which were visible within postcapillary venules, were quantitated and expressed as the number of aggregates crossing a fixed point within the venule over a 5 min period. Mast cells in the microvascular beds of the rat mesenteries were visualized by using 0.1% toluidine blue. The number of normal and degranulated mast cells was determined and the percentage of degranulated mast cells was calculated.

mesenteric venules = test: Albumin leakage across mesenteric venules after ischemia reperfusion; type: in vivo, rat; conditions: 100 μM, FIG. 4C; for effect on ischemia reperfusion induced albumin leakage: in words
Procedure: as §2, §3, §4
as §5, with “The velocimeter was calibrated against a rotating glass disk coated with red blood cells.” left out
After all parameters measured on-line were in a steady state, images from the mesenteric preparation were recorded on videotape for 10 min. […]

[5] = test system: platelet-leukocyte aggregates; test: Platelet-leukocyte aggregates after ischemia reperfusion; type: in vivo, rat; conditions: 20 min ischemia, 30 min reperfusion; 100 μM; FIG. 6
Procedure: as §2, with “Instruments). […]” for “Instruments).”
(§6) An inverted microscope (TMD-25, Diaphoto, Nikon, Tokyo, Japan) with a 40x objective lens (Fluor, Nikon) was used to observe the mesenteric microcirculation. […] A video camera (VK-C150, Hitachi, Ibaragi, Japan) mounted on the microscope projected the image onto a color monitor (PVM-2030, Sony, Tokyo, Japan) and the images were recorded using a videocassette record (NV8950, Panasonic, Tokyo, Japan). […]
Single unbranched venules with diameters ranging between 25 and 35 μm and length greater than 150 μm were selected for study. Venular diameter (DV) was measured either on- or off-line using a video caliper (Microcirculation Research Institute, Texas A&M University, College Station, Tex.). […] Wall shear rate (γ) was calculated based on the Newtonian definition γ=8(Vmean /D). […]

mast cells = test: Degranulation of microvascular mast cells after ischemia reperfusion; type: in vivo, rat; conditions: 20 min ischemia, 30 min reperfusion; 100 μM; FIG. 7
Procedure: as §2, §3, §6
as §5, with “The velocimeter was calibrated against a rotating glass disk coated with red blood cells.” left out
The number of adherent leukocytes was determined off-line during playback of videotape images. […] Adherent cells were expressed as the number per 100 μm length of venule. The number of emigrated leukocytes was also determined off-line during playback of videotape images. […] Leukocyte emigration was expressed as the number per field of view surrounding the venule. […]

intestinal mucosa = test: Intestinal blood to lumen 51Cr-EDTA clearance (mucosal permeability) in cat small intestine transplant; type: in vivo, cats
small intestine = test: Water absorption in cat small intestine transplant; type: in vivo, cats; conditions: at 90 and 120 min; 0.5 mmol; FIG. 10
microvasculature = test: Capillary pressure and vascular resistance in cat small intestine transplant; type: in vivo, cats; conditions: FIG. 13
[6] = test system: Chinese hamster V79 lung fibroblasts; conditions: Mitchell et al.; cited from earlier work

## O=NO [nitrite]
[1]
  protection from HX/XO-induced cytotoxicity: did not protect
[2]
  effect on hydrogen peroxide cytotoxicity: potentiated hydrogen peroxide cytotoxicity
  protection from hydrogen peroxide cytotoxicity: did not protect
XO [3]
  inhibition of XO activity, production of superoxide (cytochrome c reduction): did not inhibit the activity of XO
XO [4]
  inhibition of XO activity, uric acid production: did not inhibit the activity of XO

## [NH-]c1c[n+](N2CCOCC2)no1 [SIN-1]
Rat mesenteric venules; in words
  reversal of decrease in RBC velocity after reperfusion: reversed the decreases
  reversal of decrease in wall shear rate after reperfusion: reversed the decreases
Rat mesenteric venules
  RBC velocity: 2.64 ± 0.23 mm/sec
  Venular diameter: 29.0 ± 1.1 μm
  Wall Shear Rate: 457 ± 38 L/s
leukocytes; 10 and 30 min reperfusion, FIG. 4B
  reduction of number of emigrated leukocytes: 68-75%
Mesenteric venules; 10 min and 30 min after reperfusion
  attenuation of albumin leakage: 60-71%
[5]
  platelet-leukocyte aggregate formation: reduced
Mast cells
  degranulation of microvascular mast cells: significantly inhibited
Intestinal mucosa; 6-hr hypothermic ischemia, 120 min reperfusion, FIG. 9
  mucosal permeability (51Cr-EDTA clearance): decreased
Intestinal mucosa; at 60 and 90 min, 0.5 mmol luminal perfusate
  51Cr-EDTA clearance: statistically significant decrease
Small intestine
  water absorption: significantly increased
microvasculature
  capillary pressure: No significant changes

## NCCCNCCCCNCCCN [SP, spermine]
Rat mesenteric venules
  RBC velocity: 2.32 ± 0.19 mm/sec
  Venular diameter: 29.8 ± 1.4 μm
  Wall Shear Rate: 391 ± 28 L/s
leukocytes; 10 and 30 min reperfusion
  change in leukocyte adherence: no significant changes
leukocytes; FIG. 4B
  effect on emigrated leukocytes: no effect
Mesenteric venules
  effect on ischemia reperfusion induced albumin leakage: no effect
Mast cells
  degranulation of microvascular mast cells: had no effect

## CCNCC [diethylamine]
[1]
  protection from HX/XO-induced cytotoxicity: did not protect
[2]
  effect on hydrogen peroxide cytotoxicity: had no effect on hydrogen peroxide cytotoxicity
  protection from hydrogen peroxide cytotoxicity: did not protect
XO [3]
  inhibition of XO activity, production of superoxide (cytochrome c reduction): did not inhibit the activity of XO
XO [4]
  inhibition of XO activity, uric acid production: did not inhibit the activity of XO

## COC(=O)[C@@H](N)CCCNC(=N)N[N+](=O)[O-] [L-NAME, NG-nitro-L-arginine methyl ester]
Rat mesenteric venules
  RBC velocity: 1.84 ± 0.09 mm/sec
  Venular diameter: 29.2 ± 1.5 μm
  Wall Shear Rate: 316 ± 10 L/s
leukocytes; 10 and 30 min reperfusion
  change in leukocyte adherence: no significant changes
leukocytes; FIG. 4B
  effect on emigrated leukocytes: no effect
Mesenteric venules
  effect on ischemia reperfusion induced albumin leakage: no effect
Mast cells
  degranulation of microvascular mast cells: had no effect

## superoxide dismutase
[6]
  HX/XO induced cytotoxicity with added enzyme: not treated

B1: catalase: catalase (protein, UniProt P04040 2-527, looked up)
Catalase: ADSRDPASDQMQHWKEQRAAQKADVLTTGAGNPVGDKLNVITVGPRGPLLVQDVVFTDEMAHFDRERIPERVVHAKGAGAFGYFEVTHDITKYSKAKVFEHIGKKTPIAVRFSTVAGESGSADTVRDPRGFAVKFYTEDGNWDLVGNNTPIFFIRDPILFPSFIHSQKRNPQTHLKDPDMVWDFWSLRPESLHQVSFLFSDRGIPDGHRHMNGYGSHTFKLVNANGEAVYCKFHYKTDQGIKNLSVEDAARLSQEDPDYGIRDLFNAIATGKYPSWTFYIQVMTFNQAETFPFNPFDLTKVWPHKDYPLIPVGKLVLNRNPVNYFAEVEQIAFDPSNMPPGIEASPDKMLQGRLFAYPDTHRHRLGPNYLHIPVNCPYRARVANYQRDGPMCMQDNQGGAPNYYPNSFGAPEQQPSALEHSIQYSGEVRRFNTANDDNVTQVRAFYVNVLNEEQRKRLCENIAGHLKDAQIFIQKKAVKNFTEVHPDYGSHIQALLDKYNAEKPKNAIHTFVQSGSHLAAREKANL
[6]
  HX/XO induced cytotoxicity with added enzyme: treated the cytotoxicity
